The numbers were not newly measured in patent US9149436B2, “Pharmaceutical product comprising a sequestered agent” (Purdue Pharma L.P., priority 2003, dated 2015), which cites them from elsewhere.

SMILES strings stand for the structures.

For this series the following is noted: after oral doses.

For `C[C@H]1[C@H]2Cc3ccc(O)cc3[C@]1(C)CCN2CC1CC1` [cyclazocine], the duration of action is about 24 h. On to `O=C1CC[C@@]2(O)[C@H]3Cc4ccc(O)c5c4[C@@]2(CCN3CC2CC2)[C@H]1O5` [naltrexone], for which the duration of action is about 24 h.
